One may read the EC50 as the concentration giving half of the maximal effect. Usually Papp stands for the rate of passage across a membrane or cell layer, normalised by area and donor concentration. A high value points to fast passage.

These results are taken from patent US20230406812A1, “NOVEL AMINOAROMATIC COMPOUND OR PHARMACEUTICALLY ACCEPTABLE SALT THEREOF, AND PHARMACEUTICAL COMPOSITION FOR PREVENTING OR TREATING NEURODEGENERATIVE DISEASES COMPRISING SAME AS ACTIVE INGREDIENT” (INSTITUTE FOR BASIC SCIENCE, priority 2020, published 2023).

The target in one series is hemoglobin (Hb) (Homo sapiens, UniProt P68871+P69905). In words: Hydrogen peroxide scavenging ability with hemoglobin (Amplex Red H2O2 assay). The note with it: 10 μM H2O2, 80 μg/ml hemoglobin, 37° C. about 30 minutes. The series is classed as biochemical. As for the experimental part: Amplex Red is a means which turns into a fluorescent substance called resorufin when horse radish peroxidase (HRP) and H2O2 exist together and allows measurement of changes in H2O2, that is, H2O2 assay. […] The experiment was performed by adding hemoglobin instead of HRP to the H2O2 assay by Amplex Red (FIG. 1). The final concentration of each substance was 10 μM of H2O2 and 80 μg/ml of hemoglobin, and the aminoaromatic compound of the present invention was treated by concentration. After the reaction at 37° C. for about 30 minutes as such, fluorescence (excitation: 540 nm, emission: 580 nm) was measured by a microplate reader. At this time, it can be said that fluorescence is proportional to the amount of H2O2. Normalization was performed for each concentration based on a fluorescence value without a drug, and a value at which the fluorescence value was 50%, that is, a half maximal effective concentration (EC50) was determined by a program through statistical processing. The results are shown in the following Table 2, and AAD-2004 was used as a control group.

Another series concerns WT mouse (C57BL/6 mouse). Description: Single toxicity assessment (lethal dose 50, LD50). The series is classed as in vivo. The note with it: for animals died: C57BL/6, mouse, 300 mg/kg; for animals died / toxicity (death of animals): in vivo, ip; for toxicity (death of animals): mouse, 1000 mg/kg; for lethal toxicity: single dose 100 mg/kg IP, C57BL/6 mouse. As to the method: The aminoaromatic compound of the present invention, KDS12008 (Example 1), KDS12017 (Example 16), or KDS12025 (Example 21) was intraperitoneally injected at a single dose of 100, 300, and 1000 mg/kg, respectively, into a WT mouse at about 8 weeks of age (C57BL/6 mouse), and it was assessed whether the animal was dead.

The subject of the next series is APP/PS1 mouse. In words: Passive avoidance test (PAT) I. The note with it: 30 mg/kg/day IP for 16 days. The series is classed as in vivo. As to the method:
A passive avoidance test is an experiment to check the memory of animals, in which a weak electric stimulation was given in a dark room and it was assessed whether the animal remembered the electrical stimulation.
Since mice preferred a dark room, they have a tendency to move quickly to a dark room when they are in a bright room. […] A time to move from a bright room to a dark room (latency to dark room, sec) was measured, thereby measuring memory of a combination of the electrical stimulation and the dark room. An APP/PS1 mouse which is used as an Alzheimer's animal model was used to perform the passive avoidance test (FIG. 4). A wild type (WT) mouse was used as a control group.
On the first day of PAT, as an acquisition session, the mouse was allowed to stay in a bright room, and after a certain time, a dark room was opened and a time for the mouse to enter the dark room was measured. When the mouse entered the dark room, an electrical shock (0.5 mA, 2 sec) was given by a foothold. On the second day, as a retrieval session, the mouse was placed in a bright room, and a time for the mouse to enter a dark room was measured. At this time, the door of the dark room was opened first.
The APP/PS1 dementia mouse was intraperitoneally injected with the aminoaromatic compound of the present invention (KDS12008 (Example 1), KDS12017 (Example 16), or KDS12025 (Example 21)) (KDS12008 (Example 1) 30 mg/kg/day (30 mpk); KDS12017 (Example 16) 30 mg/kg/day (30 mpk); KDS12025 (Example 21) 3 mg/kg/day (3 mpk)) for 16 days (intraperitoneal injection, IP).

The subject of another series is cultured astrocytes. In words: Cell viability (QuantiMax reagent). The series is classed as cell-based, C57BL/6 mice. As to the method:
(§1) Primary cortical astrocytes were prepared from C57BL/6 mice from the day of birth to day 3 since birth. The cerebral cortex was dissected without adherent meninges, minced, and dissociated into a single cell suspension by trituration. The cells were grown in Dulbecco's modified Eagle's medium (DMEM) (Invitrogen) supplemented with 25 mM glucose, 10% heat-inactivated horse serum, 10% heat-inactivated fetal calf serum (FCS), 2 mM glutamine, and 1,000 U/ml of penicillin-streptomycin. Culture was maintained at 37° C. in a humidified 5% CO2 incubator. On day 3 of the culture, cells were vigorously washed by repeated pipetting, and the medium was exchanged to remove debris and other floating cell types.
In addition, in order to investigate cell viability, the experiment was performed using a QuantiMax reagent. The cell viability was confirmed by a luminescence degree of QuantiMax, and the results are shown in B of FIG. 3.

In series [1] the test system is primary cultured astrocytes. Description: In vitro H2O2 decomposition in primary cultured astrocytes (H2DCFDA-AM). The series is classed as cell-based, C57BL/6 mice. As for the experimental part: as §1
In order to verify that there was a H2O2 scavenging effect in a cell-level experiment, a cell-permeant 2′,7′-dichlorodihydrofluorescein diacetate (H2DCFDA-AM) drug which is a hydrogen peroxide probe in astrocytes was used to measure the amount of H2O2 in the cells with fluorescence (A and B of FIG. 2). […]
An experiment timeline for investigating the H2O2 decomposition effect by the aminoaromatic compound of the present invention, KDS12008 (Example 1) (10 μM) and sodium pyruvate (10 mM) for naturally occurring H2O2 in the cultured astrocytes is shown in A of FIG. 2. […] H2DCFDA-AM was a sample which reacted with H2O2 to produce green fluorescence, and was used at 10 μM for measurement. […]

Series [2] concerns APP/PS1 mouse hippocampus astrocytes (GFAP). Description: Immunohistochemistry (IHC) I of brain tissue, GFAP. The series is classed as in vivo. The settings on record: 30 mg/kg/day IP for 16 days. As for the experimental part:
The brain of the Alzheimer's animal model of Experimental Example 3 was fixed with formaldehyde, and sliced into a small thickness. The amount of cells or specific protein in the sliced brain was measured with an image by histochemical staining. In the present experimental example, an antibody labeling an astrocyte was used to measure a change in astrocytes related to dementia. The results are illustrated in FIG. 5. That is, in the present experimental example, the hippocampus of the brain was histologically stained and a change in astrocytes around dementia substance amyloid beta was observed. Glial fibrillary acidic protein (GFAP) refers to astrocytes staining, 4′,6-diamidino-2-phenylindole (DAPI) marked cell nuclei and amyloid beta substance.

The nature of series [3]: Blood brain barrier (BBB) permeability analysis (PAMPA). The series is classed as in vitro ADME. As for the experimental part: Based on J Med Chem. 2001 Mar. 15; 44 (6):923-30., an artificial blood brain barrier (BBB) was produced by a parallel artificial membrane permeability assay (PAMPA), and the permeability of the drug was assessed.
Background: The PAMPA barrier holds no transporters, so it reflects passive diffusion.

Sequence of hemoglobin (Hb) (P69905 2-142 limits assumed): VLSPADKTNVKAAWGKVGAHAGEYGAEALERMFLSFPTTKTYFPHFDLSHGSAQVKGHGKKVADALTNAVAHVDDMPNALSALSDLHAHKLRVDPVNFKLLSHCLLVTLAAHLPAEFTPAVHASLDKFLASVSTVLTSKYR
Sequence of hemoglobin (Hb) (P68871 2-147 limits assumed): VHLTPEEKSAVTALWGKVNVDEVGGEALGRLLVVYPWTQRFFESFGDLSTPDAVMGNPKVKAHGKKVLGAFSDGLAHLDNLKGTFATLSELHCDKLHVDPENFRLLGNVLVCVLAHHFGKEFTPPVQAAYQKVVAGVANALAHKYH

As for `CNc1ccc(NCCc2ccc(Cl)cc2)cc1` [Example 22], the EC50 on hemoglobin (Hb) turned out to be 520 nM.
With `CN(C)c1ccc(NCCc2cccc(Cl)c2)cc1` [Example 5], the EC50 on hemoglobin (Hb) was 430 nM.
On the same count and under the same terms, the figure for `Nc1ccc(NCCc2cccc(C(F)(F)F)c2)cc1` [Example 13] is 720 nM.
For `CN(C)c1ccc(NCCc2ccc(F)cc2)cc1` [Example 8], the EC50 on hemoglobin (Hb) turned out to be 410 nM.
With `Nc1ccc(NCCCc2ccc(C(F)(F)F)cc2)cc1` [Example 11], the EC50 at hemoglobin (Hb) ((DMSO)) came to 540 nM.
`COc1ccc(CCNc2ccc(N(C)C)cc2)cc1` [Example 7]: the EC50 on hemoglobin (Hb) is 460 nM.
On the same count and under the same terms, the figure for `Nc1ccc(NCCc2ccc(C(F)(F)F)cc2)cc1` [Example 9] is 300 nM.
As to `CNc1ccc(NCCc2cccc(OC)c2)cc1` [Example 24], the 50% effective concentration (EC50) on hemoglobin (Hb) turned out to be 610 nM.
`CNc1ccc(NCCc2cccc(C(F)(F)F)c2)cc1` [Example 19]: at hemoglobin (Hb), the EC50 was found to be 190 nM.
Same read-out and setting: the figure for `Nc1ccc(NCCc2ccccc2Cl)cc1` [Example 15] is 590 nM; for `Nc1ccc(NCCc2cccc(F)c2)cc1` [Example 14] it is 780 nM.
On to `CNc1ccc(NCCc2cccc(Cl)c2)cc1` [Example 20], for which, on hemoglobin (Hb), the EC50 amounted to 260 nM.
On the same count and under the same terms, the figure for `CN(C)c1ccc(NCCc2ccc(Cl)cc2)cc1` [Example 6] is 270 nM.
As for `CN(C)c1ccc(NCCCc2ccc(C(F)(F)F)cc2)cc1` [Example 10], at hemoglobin (Hb) ((DMSO)), the concentration for a half-maximal effect (EC50) was determined as 300 nM.
For the compound `Nc1ccc(NCCc2ccccc2C(F)(F)F)cc1` [Example 12], the EC50 on hemoglobin (Hb) stood at 830 nM.
On the same count and under the same terms, the figure for `CN(C)c1ccc(NCCc2ccccc2Cl)cc1` [Example 4] is 580 nM; for `CNc1ccc(NCCc2ccc(OC)cc2)cc1` [Example 23] it is 620 nM.
Take `CN(C)c1ccc(NCCc2ccc(C(F)(F)F)cc2)cc1` [Example 1]: in the series with WT mouse (C57BL/6 mouse), the animals died entry is listed as “about 50%”, the “toxicity (death of animals)” value is recorded as “showed toxicity” and the lethal toxicity entry is “lethal toxicity was not shown”. Further, in the series with APP/PS1 mouse, the “latency to dark room (impaired memory)” value is “significantly recovered”. Further, the cell viability entry with cultured astrocytes (100 μM) is reported as “no effect on cell viability”. In addition, on hemoglobin (Hb), the EC50 stood at 540 nM. Besides, in series [1] (10 μM, 2 days, cultured astrocytes), the “H2O2 decomposition effect on naturally occurring H2O2” value is given as “statistically significant decrease in H2O2”. The “amount of H2O2 in cells (fluorescence intensity)” value in series [1] (astrocytes treated at various concentrations) is recorded as “H2O2 was decreased with the concentration”. The “GFAP (astrocytes) in hippocampus” value in series [2] is “decreased GFAP”.
As for `CNc1ccc(NCCCc2ccc(C(F)(F)F)cc2)cc1` [Example 17], on hemoglobin (Hb) ((DMSO)), the EC50 came out at 300 nM.
In turn, `O=C(O)c1cc(NCCc2ccc(C(F)(F)F)cc2)ccc1O` [AAD-2004, reference compound] yielded an apparent permeability coefficient (Papp) at 50 μM in series [3] of 3.56 ×10⁻⁶ cm/s. The EC50 at hemoglobin (Hb) was determined as 990 nM.
Consider `CNc1ccc(NCCc2ccc(C(F)(F)F)cc2)cc1` [Example 16], for which, in the series with WT mouse (C57BL/6 mouse), the animals died entry is listed as “about 50%”, the “toxicity (death of animals)” value is “showed toxicity” and the lethal toxicity result is given as “lethal toxicity was not shown”. Moreover, the “latency to dark room (impaired memory)” value in the series with APP/PS1 mouse is on record as “significantly recovered”. The concentration giving a half-maximal response (EC50) at hemoglobin (Hb) was determined as 190 nM. Further, in series [2], the “GFAP (astrocytes) in hippocampus” value is reported as “decreased GFAP”.
In the case of `CN(C)c1ccc(NCCc2cccc(C(F)(F)F)c2)cc1` [Example 3], on hemoglobin (Hb), the EC50 stood at 560 nM.
For `CC(=O)C(=O)[O-].[Na+]` [sodium pyruvate, reference compound], in the series on cultured astrocytes (10 mM), the cell viability entry is recorded as “lowered cell viability”.
With `CNc1ccc(NCCc2ccccc2C(F)(F)F)cc1` [Example 18], the EC50 at hemoglobin (Hb) was 210 nM.
